Experiments:
Assay in all cases: Herbicidal effect by foliage and soil treatment
Type in all cases: in vivo
Conditions in all cases: 10 g ai/10a, evaluated after 14 days
[1] = test system: velvetleaf (Abutilon theophrasti)
How it was run: (§1)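 Seedlings grown in granular soil in a 19–25 °C greenhouse to the cotyledon–two-leaf stage were sprayed over foliage and soil with compound in Tween 20/water at a set application rate. Growth was scored on a rating scale against untreated plants after 14 days.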

[2] = test system: wild chamomile (Matricaria chamomilla)
How it was run: as §1

[3] = test system: redroot pigweed (Amaranthus retroflexus)
How it was run: as §1

[4] = test system: cleavers (Galium aparine)
How it was run: as §1

[5] = test system: black nightshade (Solanum nigrum)
How it was run: as §1

[6] = test system: kediock (Sinapis arvensis)
How it was run: as §1

[7] = test system: sicklepod (Cassia obtusifolia)
How it was run: as §1

[8] = test system: ivyleafspeedwell (Veronica hederaefolia)
How it was run: as §1

[9] = test system: common blackjack (Bidens pilosa)
How it was run: as §1

[10] = test system: common chickweed (Stellaria media)
How it was run: as §1

[11] = test system: field bindweed (Convolvulus arvensis)
How it was run: as §1

Row | SMILES | herbicidal activity rating, AT (Abutilon theophrasti) [1] | herbicidal activity rating, MC (Matricaria chamomilla) [2] | herbicidal activity rating, AR (Amaranthus retroflexus) [3] | herbicidal activity rating, GA (Galium aparine) [4] | herbicidal activity rating, SN (Solanum nigrum) [5] | herbicidal activity rating, SA (Sinapis arvensis) [6] | herbicidal activity rating, CO (Cassia obtusifolia) [7] | herbicidal activity rating, VH (Veronica hederaefolia) [8] | herbicidal activity rating, BP (Bidens pilosa) [9] | herbicidal activity rating, SM (Stellaria media) [10] | herbicidal activity rating, CA (Convolvulus arvensis) [11]
1 | COc1cc(Oc2cccc(C(F)(F)F)c2)nc(C(=O)NC(C)C)c1 [Compound I-37, N-(i-propyl)-4-methoxy-6-{3-(trifluoromethyl)phenoxy}-2-pyridine carboxamide] | 4 (percentage of weeds killed was not less than 60% and less than 80%) | 5 (percentage of weeds killed was not less than 80%) | 5 (percentage of weeds killed was not less than 80%) | 5 (percentage of weeds killed was not less than 80%) | 5 (percentage of weeds killed was not less than 80%) | 5 (percentage of weeds killed was not less than 80%) | 5 (percentage of weeds killed was not less than 80%) | 5 (percentage of weeds killed was not less than 80%) | 5 (percentage of weeds killed was not less than 80%) | 5 (percentage of weeds killed was not less than 80%) | 5 (percentage of weeds killed was not less than 80%)
2 | C=CCNC(=O)c1cc(OC)cc(Oc2cccc(C(F)(F)F)c2)n1 [Compound I-42] | 4 (percentage of weeds killed was not less than 60% and less than 80%) | 4 (percentage of weeds killed was not less than 60% and less than 80%) | 5 (percentage of weeds killed was not less than 80%) | 5 (percentage of weeds killed was not less than 80%) | 5 (percentage of weeds killed was not less than 80%) | 5 (percentage of weeds killed was not less than 80%) | 5 (percentage of weeds killed was not less than 80%) | 5 (percentage of weeds killed was not less than 80%) | 3 (percentage of weeds killed was not less than 40% and less than 60%) | 5 (percentage of weeds killed was not less than 80%) | 4 (percentage of weeds killed was not less than 60% and less than 80%)
3 | COc1cc(Oc2cccc(C(F)(F)F)c2)nc(C(=O)NCC(C)C)c1 [Compound I-72] | 4 (percentage of weeds killed was not less than 60% and less than 80%) | 5 (percentage of weeds killed was not less than 80%) | 5 (percentage of weeds killed was not less than 80%) | 5 (percentage of weeds killed was not less than 80%) | 5 (percentage of weeds killed was not less than 80%) | 5 (percentage of weeds killed was not less than 80%) | 5 (percentage of weeds killed was not less than 80%) | 5 (percentage of weeds killed was not less than 80%) | 5 (percentage of weeds killed was not less than 80%) | 5 (percentage of weeds killed was not less than 80%) | 5 (percentage of weeds killed was not less than 80%)
4 | CNc1cc(Oc2cccc(C(F)(F)F)c2)nc(C(=O)NC(C)C)c1 [Compound I-56, N-(i-propyl)-4-methylamino-6-{3-(trifluoromethyl)phenoxy}-2-pyridine carboxamide] | 5 (percentage of weeds killed was not less than 80%) | 4 (percentage of weeds killed was not less than 60% and less than 80%) | 5 (percentage of weeds killed was not less than 80%) | 5 (percentage of weeds killed was not less than 80%) | 5 (percentage of weeds killed was not less than 80%) | 5 (percentage of weeds killed was not less than 80%) | 4 (percentage of weeds killed was not less than 60% and less than 80%) | 5 (percentage of weeds killed was not less than 80%) | 4 (percentage of weeds killed was not less than 60% and less than 80%) | 4 (percentage of weeds killed was not less than 60% and less than 80%) | 5 (percentage of weeds killed was not less than 80%)
5 | COc1cc(Oc2cccc(C(F)(F)F)c2)nc(C(=O)NC=C(Cl)Cl)c1 [Compound I-83, N-(2,2-dichlorovinyl)-4-methoxy-6-{3-(trifluoromethyl)phenoxy}-2-pyridine carboxamide] | 5 (percentage of weeds killed was not less than 80%) | 5 (percentage of weeds killed was not less than 80%) | 5 (percentage of weeds killed was not less than 80%) | 5 (percentage of weeds killed was not less than 80%) | 5 (percentage of weeds killed was not less than 80%) | 5 (percentage of weeds killed was not less than 80%) | 5 (percentage of weeds killed was not less than 80%) | 5 (percentage of weeds killed was not less than 80%) | 5 (percentage of weeds killed was not less than 80%) | 5 (percentage of weeds killed was not less than 80%) | 5 (percentage of weeds killed was not less than 80%)
6 | CNC(=S)c1cc(OC)cc(Oc2cccc(C(F)(F)F)c2)n1 [Compound I-47] | 5 (percentage of weeds killed was not less than 80%) | 3 (percentage of weeds killed was not less than 40% and less than 60%) | 5 (percentage of weeds killed was not less than 80%) | 5 (percentage of weeds killed was not less than 80%) | 5 (percentage of weeds killed was not less than 80%) | 5 (percentage of weeds killed was not less than 80%) | 5 (percentage of weeds killed was not less than 80%) | 5 (percentage of weeds killed was not less than 80%) | 3 (percentage of weeds killed was not less than 40% and less than 60%) | 4 (percentage of weeds killed was not less than 60% and less than 80%) | 5 (percentage of weeds killed was not less than 80%)
7 | COc1cc(Oc2cccc(C(F)(F)F)c2)nc(C(=O)NCC2CC2)c1 [Compound I-85] | 5 (percentage of weeds killed was not less than 80%) | 5 (percentage of weeds killed was not less than 80%) | 5 (percentage of weeds killed was not less than 80%) | 5 (percentage of weeds killed was not less than 80%) | 5 (percentage of weeds killed was not less than 80%) | 5 (percentage of weeds killed was not less than 80%) | 5 (percentage of weeds killed was not less than 80%) | 5 (percentage of weeds killed was not less than 80%) | 4 (percentage of weeds killed was not less than 60% and less than 80%) | 5 (percentage of weeds killed was not less than 80%) | 4 (percentage of weeds killed was not less than 60% and less than 80%)
8 | COc1cc(Oc2cccc(C(F)(F)F)c2)nc(C(=O)Nc2ccccc2)c1 [Compound I-1, N-phenyl-4-methoxy-6-{3-(trifluoromethyl)phenoxy}-2-pyridine carboxamide] | 4 (percentage of weeds killed was not less than 60% and less than 80%) | 4 (percentage of weeds killed was not less than 60% and less than 80%) | 5 (percentage of weeds killed was not less than 80%) | 5 (percentage of weeds killed was not less than 80%) | 5 (percentage of weeds killed was not less than 80%) | 5 (percentage of weeds killed was not less than 80%) | 5 (percentage of weeds killed was not less than 80%) | 5 (percentage of weeds killed was not less than 80%) | 5 (percentage of weeds killed was not less than 80%) | 4 (percentage of weeds killed was not less than 60% and less than 80%) | 4 (percentage of weeds killed was not less than 60% and less than 80%)

Reference: patent publication US6339045B1, “N-(unsubstituted or substituted)-4-substituted-6-(unsubstituted or substituted)phenoxy-2-pyridinecarboxamides or thiocarboxamides, processes for producing the same, and herbicides” (Kureha Kagaku Kogyo Kabushiki Kaisha, priority 1995, dated 2002)
